Holding throughout (assay type): cell-based
For one assay, the system named is A431 cells (EGFR WT). In words: A431 cell proliferation inhibition assay (CellTiter-Glo). The note with it: Homo sapiens. The method, then: A431 Cell Proliferation Inhibition Assay
In the assay, the inhibition effect of the compounds on the proliferation of A431 cells was tested by adopting a CellTiter-Glo method, and the concentration IC50 of the compound for inhibiting half maximal growth of cells was obtained.
A431 cells, purchased from ATCC.
DMEM medium, fetal bovine serum (FBS), and Penicillin-Streptomycin, purchased from GIBCO.
(§1) Brigatinib, purchased from Selleck.
(§2) CellTiter-Glo reagent, purchased from Promega.
1) A431 cells were seeded in a 384-well plate at a density of 800 cells/well with 30 μL/well, and the plate was cultured in a cell incubator for 24 h (37° C., 5% CO2).
(§3) 2) Day 0: […] of gradiently-diluted compounds to be tested with a final concentration of DMSO of 0.1% was added to plate using Echo, and the plate was incubated in a cell incubator for 72 h (37° C., 5% CO2). […] of DMSO was added into each well in blank control group.
(§4) 3) Day 3: 30 μL Cell Titer-Glo reagent was added to each well, and the plate was in the dark under room temperature for 30 min.
(§5) 4) The chemiluminescent signal was detected by an Envision plate reader (PerkinElmer).
(§6) 5) Data analysis was performed using GraphPad Prism software to give the IC50 for compounds.

For assay [1], the system named is Ba/F3_Del19/T790M/C797S cells. The experiment in a line: Ba/F3_Del19/T790M/C797S cell proliferation inhibition assay (CellTiter-Glo). The settings on record: Mus musculus. The method, then:
Ba/F3_Del19/T790M/C797S Cell Proliferation Inhibition Assay
In the assay, the inhibition effect of the compounds on the proliferation of Ba/F3_Del19/T790M/C797S cells was tested by adopting a CellTiter-Glo method, and the concentration IC50 of the compound for inhibiting half maximal growth of cells was obtained.
Ba/F3_Del19/T790M/C797S, purchased from Kyinno Biotechnology Co., Ltd. 1640 medium, fetal bovine serum (FBS), Penicillin-Streptomyces, and GlutaMAX-I Supplement, purchased from GIBCO.
as §1, §2
1) Ba/F3_Del19/T790M/C797S cells were seeded in a 384-well plate at a density of 700 cells/well with 30 μL/well.
as §3, §4, §5
Data analysis was performed using GraphPad Prism 6 software to give the IC50 for compounds.

The subject of assay [2] is Ba/F3_L858R/T790M/C797S cells. The experiment in a line: Ba/F3_L858R/T790M/C797S cell proliferation inhibition assay (CellTiter-Glo). The settings on record: Mus musculus. The method, then:
Ba/F3_L858R/T790M/C797S Cell Proliferation Inhibition Assay
In the assay, the inhibition effect of the compounds on the proliferation of Ba/F3_L858R/T790M/C797S cells was tested by adopting a CellTiter-Glo method, and the concentration IC50 of the compound for inhibiting half maximal growth of cells was obtained.
Ba/F3_L858R/T790M/C797S cells were constructed by Pharmaron Beijing Co., Ltd.
1640 medium, fetal bovine serum (FBS), Penicillin-Streptomyces, and GlutaMAX-I Supplement, purchased from GIBCO.
as §1, §2
1) Ba/F3_L858R/T790M/C797S cells were seeded in a 384-well plate at a density of 700 cells/well with 30 μL/well.
as §3, §4, §5, §6

Where [3] appears, read: A-431, cell proliferation, 72 h, CellTiter-Glo, read-out: A431 EGFR WT IC50.
The mark [4] stands for this setting: BaF3, cell proliferation, 72 h, CellTiter-Glo, read-out: Ba/F3 (Del19/T790M/C797S) IC50.
Setting [5] is: BaF3, cell proliferation, 72 h, CellTiter-Glo, read-out: Ba/F3 (L858R/T790M/C797S) IC50.
The mark [6] stands for this setting: A-431, 72 h, read-out: A431 EGFR WT IC50(nM).
Setting [7] is: BaF3, 72 h, read-out: Ba/F3 (Del19/T790M/C797S) IC50(nM).
The mark [8] stands for this setting: BaF3, 72 h, read-out: Ba/F3 (L858R/T790M/C797S) IC50(nM).

For 13 compounds, IC50 results are on record in patent US20240034743A9, “TRICYCLIC COMPOUNDS AS EGFR INHIBITORS” (QILU PHARMACEUTICAL CO., LTD., priority 2020, published 2024).

Where two headings read alike, the source gives them in different places.

`COc1cc2c(cc1Nc1ncc(Br)c(Nc3ccc4nccnc4c3P(C)(C)=O)n1)-c1cnn(C)c1CCN2C1CC1` [Compound 74]: the values for the IC50 (with A431 cells (EGFR WT) (setting [3]); in assay [1] (setting [4]); in assay [2] (setting [5])) were 100 to 1000 nM, less than 10 nM and less than 10 nM, respectively.

Take `COc1cc2c(cc1Nc1ncc(Br)c(Nc3ccc4nccnc4c3P(C)(C)=S)n1)-c1cnn(C)c1CCN2C1CCN(C)CC1` [Compound 76]: the IC50 with A431 cells (EGFR WT) (setting [6]) was 50 to 100 nM; in assay [1] (setting [7]), less than 10 nM; in assay [2] (setting [8]), less than 10 nM.

Turning to `COc1cc2c(cc1Nc1ncc(Br)c(Nc3ccc4nccnc4c3P(C)(C)=O)n1)-c1cnn(C)c1CCN2C1CCCN(C)C1` (stereo not drawn) [Compound 84], the values for the IC50 (in the assay with A431 cells (EGFR WT) (setting [3]); in assay [1] (setting [4]); in assay [2] (setting [5])) were 10 to 50 nM, less than 10 nM and less than 10 nM, respectively.

For the compound `COc1cc2c(cc1Nc1ncc(C)c(Nc3ccc4nccnc4c3P(C)(C)=O)n1)-c1cnn(C)c1CCN2C(C)C` [Compound 85], the figures for the IC50 (with A431 cells (EGFR WT) (setting [3]); in assay [1] (setting [4]); in assay [2] (setting [5])) were 100 to 1000 nM, less than 10 nM and less than 10 nM, respectively.

`COc1cc2c(cc1Nc1ncc(Br)c(Nc3ccc4nccnc4c3P(C)(C)=O)n1)-c1cnn(C)c1CCN2C1CCOCC1` [Compound 88]: the IC50 in the assay with A431 cells (EGFR WT) (setting [3]) is 50 to 100 nM; in assay [1] (setting [4]), less than 10 nM; in assay [2] (setting [5]), less than 10 nM.

As for `COc1cc2c(cc1Nc1ncc(Br)c(Nc3ccc4nccnc4c3P(C)(C)=O)n1)-c1cnn(C)c1CCN2C1CC2(C1)CN(C)C2` [Compound 89], the IC50 (in the assay on A431 cells (EGFR WT) (setting [3]); in assay [1] (setting [4]); in assay [2] (setting [5])) was 10 to 50 nM each time.

For `COc1cc2c(cc1Nc1ncc(Br)c(Nc3ccc4nccnc4c3P(C)(C)=O)n1)-c1cnn(C)c1CCN2C1CC2(C1)CN(C(C)C)C2` [Compound 90], the IC50 with A431 cells (EGFR WT) (setting [3]) was 10 to 50 nM; in assay [1] (setting [4]), less than 10 nM; in assay [2] (setting [5]), less than 10 nM.

Regarding `COc1cc2c(cc1Nc1ncc(Br)c(Nc3ccc4nccnc4c3P(C)(C)=S)n1)-c1cnn(C)c1CCN2C1CC2(C1)CN(C)C2` [Compound 93], the values for the IC50 (in the assay on A431 cells (EGFR WT) (setting [6]); in assay [1] (setting [7]); in assay [2] (setting [8])) were 10 to 50 nM, less than 10 nM and 10 to 50 nM, respectively.

`COc1cc2c(cc1Nc1ncc(Br)c(Nc3ccc4nccnc4c3NS(C)(=O)=O)n1)-c1cnn(C)c1CCN2` [Compound 114]: the IC50 is 100 to 1000 nM in the assay with A431 cells (EGFR WT) (setting [6]), less than 10 nM in assay [1] (setting [7]) and less than 10 nM in assay [2] (setting [8]).

As to `COc1cc2c(cc1Nc1ncc(Br)c(Nc3ccccc3N(C(C)C)S(C)(=O)=O)n1)-c1cnn(C)c1CCN2C(C)C` [Compound 124], the IC50 is more than 1000 nM in the assay with A431 cells (EGFR WT) (setting [3]), 10 to 50 nM in assay [1] (setting [4]) and 10 to 50 nM in assay [2] (setting [5]).

`CNS(=O)(=O)c1ccccc1Nc1nc(Nc2cc3c(cc2OC)N(C(C)C)CCc2c-3cnn2C)ncc1Br` [Compound 127]: the IC50 (with A431 cells (EGFR WT) (setting [3]); in assay [1] (setting [4]); in assay [2] (setting [5])) was 100 to 1000 nM throughout.

Regarding `COc1cc2c(cc1Nc1ncc(Br)c(Nc3ccc4nccnc4c3NS(C)(=O)=O)n1)-c1cnn(C)c1CCN2CC(C)C` [Compound 133], the results for the IC50 (in the assay on A431 cells (EGFR WT) (setting [3]); in assay [1] (setting [4]); in assay [2] (setting [5])) were 100 to 1000 nM, less than 10 nM and less than 10 nM, respectively.

As to `CCN1CCc2c(cnn2C)-c2cc(Nc3ncc(Br)c(Nc4ccc5nccnc5c4NS(C)(=O)=O)n3)c(OC)cc21` [Compound 139], the IC50 in the assay on A431 cells (EGFR WT) (setting [3]) is 100 to 1000 nM; in assay [1] (setting [4]), less than 10 nM; in assay [2] (setting [5]) it was less than 10 nM.
